Source: patent publication US20040029871A1, “Pharmaceutical compounds for treating copd” (priority 2000, published 2004)

target: T1, human MPO (Homo sapiens, UniProt P05164); experiment: in vitro MPO assay measuring production of hypochlorus acid (HOCl); type: biochemical; details: not given
T1 construct: purchased Planta
Experimental: Here we describe an in vitro MPO assay that was developed to assess inhibition of enzyme activity. Essentially the MPO assay was designed to measure the production of hypochlorus acid (HOCl), which is the key physiological product generated by the enzyme in vivo. An outline of the assay reactions is given: [drawing 5]
Compounds were preincubated with the MPO enzyme in buffer for about 15 min prior to start of reaction with H2O2. The whole reaction was carried out at room temperatutre for 10 min in a 96-well plate. […] All test concentrations were done in duplicated with at least two separate determinations n=2, unless otherwise stated. The inhibitory concentration for a compound is presentated as pIC50, which is −log IC50.

T1 sequence (P05164 279-745 limits assumed): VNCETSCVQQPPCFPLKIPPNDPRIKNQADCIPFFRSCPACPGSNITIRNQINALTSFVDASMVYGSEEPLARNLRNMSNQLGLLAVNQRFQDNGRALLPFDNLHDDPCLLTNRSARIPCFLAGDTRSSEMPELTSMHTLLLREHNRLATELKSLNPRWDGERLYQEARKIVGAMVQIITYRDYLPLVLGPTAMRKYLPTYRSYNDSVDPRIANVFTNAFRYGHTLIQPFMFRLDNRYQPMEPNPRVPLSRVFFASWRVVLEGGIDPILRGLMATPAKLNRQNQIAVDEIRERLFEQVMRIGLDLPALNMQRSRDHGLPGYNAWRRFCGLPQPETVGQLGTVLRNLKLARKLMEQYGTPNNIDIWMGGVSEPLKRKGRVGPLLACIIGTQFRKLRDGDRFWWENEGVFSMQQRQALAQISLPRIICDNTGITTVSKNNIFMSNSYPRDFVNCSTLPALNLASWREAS
T1 sequence (P05164 165-273 limits assumed): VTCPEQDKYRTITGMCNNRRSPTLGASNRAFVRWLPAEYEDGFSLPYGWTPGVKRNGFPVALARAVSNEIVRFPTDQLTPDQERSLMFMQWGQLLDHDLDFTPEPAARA

Structure (SMILES) | IC50
COc1ccc2[nH]cc(CCN)c2c1 [5-Methoxytryptamine] | 631 nM
c1ccc2[nH]ccc2c1 [Indole] | 2000 nM

same assay, conditions: 2.5 nM purified human MPO, 100 uM H2O2, pH 6.5, 15 min preincubation, 10 min at room temperature; pIC50 = -log IC50

Structure (SMILES) | Inhibition of human MPO-HOCl production, pIC50
COc1ccc2[nH]cc(CCO)c2c1 [5-Methoxytryptophol] | 6.3
Nc1ccc(S(=O)(=O)Nc2nccs2)cc1 [N-1(2 thiazolyl)-sulfanilamide] | 6.0

same assay, conditions: human MPO

Structure (SMILES) | relative potency as inhibitor of HOCl production by human MPO (in words)
Nc1ccc(S(=O)(=O)c2ccc(N)cc2)cc1 [Dapsone] | most potent inhibitor of the sulfones/sulfonamides tested

same assay, conditions: read-out: Inhibition of human MPO-HOCl production, pIC50 (converted)

Structure (SMILES) | IC50
Cc1noc(NS(=O)(=O)c2ccc(N)cc2)c1C [Sulfisoxazole] | 6310 nM
Cc1c[nH]c2ccccc12 [3-Methylindole] | 1260 nM
Nc1ccc(S(N)(=O)=O)cc1 [Sulfanilamide] | 1000 nM
COc1ccc2[nH]ccc2c1 [5-Methoxyindole] | 2510 nM
CCOC(=O)c1cccc(N)c1 [3-Aminobenzoic acid ethylester] | 631 nM
CN1C(C(=O)Nc2ccccn2)=C(O)c2ccccc2S1(=O)=O [Piroxicam] | 2510 nM
Nc1ccc(S(=O)(=O)Nc2ccccn2)cc1 [Sulfapyridine] | 2000 nM
CC(=O)Nc1ccc(S(=O)(=O)Nc2ccc([N+](=O)[O-])cc2)cc1 [Sulfanitran] | 7940 nM
COc1cc(C=O)ccc1O [Vanillin] | 7940 nM
Nc1ccc(S(=O)(=O)Nc2ncccn2)cc1 [Sulfadiazine] | 6310 nM
Nc1ccc(S(=O)(=O)c2ccc(N)cc2)cc1 [Dapsone] | 631 nM
COc1ccc2cc[nH]c2c1 [6-Methoxyindole] | 1580 nM
[H]/N=C(/N)NS(=O)(=O)c1ccc(N)cc1 [Sulfaguanidine] | 3160 nM
N=C(N)c1ccc(N)cc1 [p-Aminobenzamidine] | 2510 nM
COc1ccc2[nH]cc(CCNC(C)=O)c2c1 [Melatonin] | 794 nM

tested on: stimulated human neutrophils; experiment: functional human neutrophil assay, HOCl production by PMA-stimulated neutrophils; type: cell-based; details: 2x10^6 neutrophils, PMA 1 μg/ml, 15 min preincubation, 30 min at 37C, read-out: Inhibition of HOCl production by stimulated human neutrophils, pIC50 (converted)
Experimental: Here we describe the use of a functional human neutrophil assay to determine the effects of MPO inhibitors on the production of HOCl. This assay detects the production of HOCl from stimulated (e.g. PMA, LPS, fMLP, zymozan) human neutrophils. Human neutrophils were purified from fresh heparinised blood by density centrifugation on Polymorphprep (Nycomed). These neutrophils were used immediately after purification. A standard reaction mixture contained the following: 2×10^6 neutrophils, 140 mM NaCl, 5 mM taurine, 0.5 mM MgCl2, 1 mM CaCl2 and 1 mg/ml glucose. Test compounds were made up in DMSO and added to cells, with a final DMSO concentration of 0.5%. Test compounds were given 15 min preincubation at 37C with neutrophils prior to the addition of the PMA stimulant (1 μg/ml). The assay was then allowed to progress for another 30 min at 37C. At the end of the incubation, supernatants were collected by centrifugation and assayed for HOCl by using the stop/development reagent as above. All compounds were tested in duplicate with at least two separate determinations n=2 from two different donors.

Structure (SMILES) | IC50
Nc1ccc(S(N)(=O)=O)cc1 [Sulfanilamide] | 15.8 µM
Nc1ccc(S(=O)(=O)Nc2ccccn2)cc1 [Sulfapyridine] | 31.6 µM
COc1cc(NC(C)CCCN)c2ncccc2c1 (stereo not drawn) [Primaquine] | 12.6 µM
Nc1ccc(S(=O)(=O)c2ccc(N)cc2)cc1 [Dapsone] | 20 µM
